Laboratory results taken from patent US10548906B2, “Methods of promoting hepatic regeneration” (Intercept Pharmaceuticals, Inc., priority 2015, dated 2020).
“Also recorded” adds a separate entry of the source.

How the values were obtained:
Wistar rats [1] = experiment: Liver growth in cholestatic (rBDL) rats prior to partial hepatectomy (Example 6); type: in vivo, rat; conditions: prior to PHx
Excerpt: After the acclimatization period, the rats either continued on a regular chow diet or were switched to a methionine and choline-deficient (MCD) diet (Harlan Teklad, Madison, Wis.) for 3 weeks to induce moderate hepatic steatosis [Heger 2011a]. At the start of the second diet week, the rats either underwent sham surgery or were subjected to reversible bile duct ligation (rBDL). For rBDL, the extrahepatic bile duct was cannulated with a polyethylene catheter (length=±1.5 cm, inner diameter=0.4 mm, outer diameter=0.9 mm, Braun, Melsungen, Germany) connected to Silastic Tubing with a closed distal tip (length=±7.5 cm, inner diameter=0.8 mm, outer diameter=1.4 mm, Dow Corning, Midland, Mich.) [Kloek 2008]. Sham-operated animals underwent abdominal surgery, including bile duct mobilization, without inducing a biliary obstruction. Groups of rBDL rats were left untreated or received a daily oral gavage of the FXR agonist obeticholic acid (OCA, 10 mg/kg in 0.5% methylcellulose, 1.5 mL per 300 g body weight) between 7:30 and 9:00 AM.
Seven days after BDL or sham operation, all rats were subjected to 70% PHx [DeGraaf 2011]. […]
At baseline (i.e., directly before PHx) and one to five days after PHx, animals were euthanized under isoflurane anesthesia by exsanguination. […] Liver regrowth was calculated from the regenerated liver mass, and was expressed as percentage of total liver mass prior to PHx. The projected remnant liver mass was calculated using the weight of the resected liver segments, which represent 70% of the total liver mass. Dry liver weights were measured to correct for hepatic water content [Kloek 2010a].
After formalin fixation, liver specimens were dehydrated, paraffin-embedded, and stained with hematoxylin and eosin (H&E), the collagen type I and III stain picrosirius red, or the proliferation marker Ki67 [Marsman 2013]. Semi-quantitative analysis of H&E- and picrosirius red-stained liver histology was performed by an experienced hepatopathologist (JV) blinded to the experimental groups using a scoring system detailed in Table 1. […]

Wistar rats [2] = experiment: Bile volume and HPLC bile acid analysis in rBDL rats prior to PHx (Example 6); type: in vivo, rat
Description: At baseline (i.e., directly before PHx) and one to five days after PHx, animals were euthanized under isoflurane anesthesia by exsanguination. Blood samples were collected from the caval vein in heparin-anticoagulated vacutainers (BD, Franklin Lakes, N.J.) and centrifuged for 10 min (3000×g, 4° C.). In rBDL animals sacrificed at baseline, bile was aspirated with a syringe from the dilated extrahepatic bile duct, weighed, and stored at −80° C. The liver and ileum were excised, weighed, loafed, and either fixed in a 10% (vol/vol) neutralized formalin solution (J. T. Baker, Center Valley, Pa.), snap-frozen in liquid nitrogen and stored at −80° C., or collected in RNAlater (Qiagen, Venlo, the Netherlands) and stored at −20° C. Liver regrowth was calculated from the regenerated liver mass, and was expressed as percentage of total liver mass prior to PHx. The projected remnant liver mass was calculated using the weight of the resected liver segments, which represent 70% of the total liver mass. Dry liver weights were measured to correct for hepatic water content [Kloek 2010a].
Bile acids were separated and quantified by reverse-phase high-performance liquid chromatography (HPLC) [Lionarons 2016]. Bile or plasma samples (20 μL) were deproteinated by the addition of 5 volumes of acetonitrile. Following centrifugation (10 min at 20,000×g), solvent was evaporated from supernatants and bile salts were solubilized in 200 μL of 25% methanol. For liver homogenates, 100 mg liver tissue was sonicated for 30-90 s in 500 μL of water. One mL of acetonitrile was added for protein precipitation. Samples were subsequently centrifuged at 20,000×g for 10 min, after which the supernatant was used for analysis. Results were corrected for homogenate protein content. One hundred μL of sample was applied to a Hypersil C18 HPLC column (Thermo Scientific, Waltham, Mass.) operated at 20° C. […] Detection was done using a Nano Quantity Analyte Detector QT-500 (Quant Technologies, Blaine, Minn.). Bile acids were quantified using a separate calibration curve per species. […]

[3] = test system: New Zealand White rabbits; experiment: PVE-induced liver growth in rabbits, CT volumetry and body weight (Example 5)
Description: PVE of the cranial liver lobes was performed using polyvinyl alcohol particles and coils at day 0. Caudal liver volume (CLV) was analyzed by CT volumetry at days −7, −1, +3 and +7. Liver function (i.e. mebrofenin uptake) was quantified in subgroups of animals using hepatobiliary scintigraphy. Additional parameters analyzed were plasma transaminase levels, histological scoring of H&E- and Ki67-stained liver sections, and FXR target gene expression.
Six groups of six rabbits were planned for PVE. […] Treatment was started 7 days before PVE, and continued until sacrifice at 3 or 7 days after PVE.
Under digital subtraction portography a Renegade 3F microcatheter (Boston Scientific, Natick, Mass.) with a Transend-ex 0.36 mm×182-cm guide wire (Boston Scientific) was positioned in the main portal branch to the cranial liver lobes. Polyvinyl alcohol particles (90-180 μm and 300-500 μm in diameter, Cook, Bloomington, Ind.) and 2 fibered platinum coils (4.0 and 6.0 mm; Boston Scientific) were infused through the catheter to occlude the portal branches to the cranial lobes. PVE was confirmed by portography, and the mesenteric vein was closed using a ligature. The abdomen was closed in two layers. Baytril was administered daily for 3 days following PVE.
Multiphase CT-scans (Brilliance 64, Philips, Eindhoven, The Netherlands) were performed at day −7, −1, +3, and +7. Animals (n=18 per treatment group) were anesthetized and a 22G catheter was placed in the lateral ear vein. A baseline scan was made and 3 mL of contrast solution (Visipaque, GE Healthcara, Waukesha, Wis.) was injected. Arterial, portal and venous phase scans were made after 15, 30, 45 seconds respectively. Volumetric analysis was performed on 3D reconstruction of 5-mm axial slices using manual delineation. Caudal liver volume (CLV) and total liver volume (TLV) were determined and increase in CLV was determined using the following formula:
The same formula was used to calculate the decrease in cranial liver volume (CrLV; CrLV=TLV−CLV). Increase in CLV and decrease in CrLV was calculated using day −1 values as baseline. […] Regeneration rate was calculated using the formula:

[4] = test system: New Zealand White rabbits; experiment: Hepatobiliary scintigraphy, 99mTc-mebrofenin uptake after PVE (Example 5); type: in vivo, rabbit
Description: Liver function was assessed using hepatobiliary scintigraphy (HBS) with ^99mTc-labeled (2,4,6 trimethyl-3-bromo) iminodiacetic acid (^99mTc-mebrofenin, Bridatec, GE Healthcare, Eindhoven, the Netherlands) at days −7, −1, +3 and +7. Rabbits (n=6 per treatment group) were anesthetized and positioned on an imaging table with the liver and heart positioned under a large field-of-view single photon emission computed tomography (SPECT/CT) camera (Siemens Symbia T16). Regions of interest were drawn around the left ventricle for blood pool readings, around the entire liver for total liver uptake, and around the caudal liver lobe (FIG. 10; the yellow region of interest (ROI) delineates the left ventricle, the red ROI the total liver and the pink ROI the caudal liver lobe; a marked decrease in cranial liver lobe activity and increase in caudal liver lobe activity was seen following portal vein embolization.). Per rabbit, a dose of 50 MBq ^99mTc-mebrofenin was administered via a lateral ear vein directly before the start of acquisition.
The geometric mean dataset of the anterior and posterior cameras was used for analysis. Hepatic ^99mTc-mebrofenin uptake rate was calculated as an increase of ^99mTc-mebrofenin uptake over two minutes, corrected for perfusion. Total liver uptake was represented by the total hepatic ^99mTc-mebrofenin uptake rate, and calculated as a percentage of the injected dose per minute. The fractional ^99mTc-mebrofenin uptake rate was calculated for the caudal liver lobe, based of distribution of segmental activity and was corrected for baseline measurements at t=−7 days.

[5] = after seven days of OCA treatment

## CC[C@H]1[C@@H](O)[C@@H]2[C@H](CC[C@]3(C)[C@@H]([C@H](C)CCC(=O)O)CC[C@@H]23)[C@@]2(C)CC[C@@H](O)C[C@@H]12 [Compound 1, 3α,7α-dihydroxy-6α-ethyl-5β-cholanic acid]
Wistar rats [1]; 7 days rBDL
  liver mass corrected for hepatic water content (dry weight): increased liver mass
Wistar rats [1]; 7 days rBDL, 10 mg/kg daily oral
  gross liver mass vs control group: higher
Wistar rats [1]; vs untreated rBDL or non-cholestatic animals
  hepatocyte proliferation measured by Ki67 staining: more pronounced
Wistar rats [2]; [5]
  bile retrieved from the extrahepatic bile duct: substantial increase
  biliary BA output: elevated
Wistar rats [2]; prior to PHx, rBDL, listed as OCA
  hepatic BA load / content: reduction; also recorded: effectively counteracted
[3]; 3 days after PVE
  increase of CLV relative to vehicle controls: 2.2 fold
[3]; 3 days after PVE, relative to day −1, N=17
  increase in caudal liver volume (CLV): 56.1±20.3%
[3]; day 7 after PVE
  increase of CLV relative to vehicle controls: 1.5 fold
[3]; day 7 after PVE, relative to day −1, N=11
  increase in caudal liver volume (CLV): 102.0±38.2%
[3]; pre-treatment period day −7 until day −1, 10 mg/kg daily oral
  total liver volume (TLV) corrected for body weight: did not induce spontaneous liver growth
[3]; vs vehicle
  body weight decrease after PVE: to a similar extent
[4]; 3 days after PVE
  increase in contribution of caudal liver lobe (CLF share) to total liver mebrofenin uptake: 44.5±5.4%
[4]; day +3
  increase in caudal liver function relative to vehicle: 1.2 fold
[4]; days −1, +3, +7, N=6
  total liver uptake of mebrofenin: remained stable in both groups
